In PubChem BioAssay AID248 (DTP/NCI, 2004):
Values joined by “and” are separate entries in the source; they are usually repeats but may differ in a detail not shown here. Equal entries are not always repeated. Toxic doses and inconclusive results are not listed.

System: L1210 leukemia ip in BDF1 mice, survival T/C
Assay: NCI In Vivo Anticancer Drug Screen. Data for tumor model L1210 Leukemia (intraperitoneal) in B6D2F1 (BDF1) mice
Conditions: endpoint: mean survival time, higher = longer survival
Procedure, shortened: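 Value reflects the ratio of survival in compound-treated mice to survival in vehicle-treated controls, with both groups carrying the same transplanted tumor.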

SMILES: CC[C@@]1(O)C(=O)OCc2c1cc1n(c2=O)Cc2cc3ccccc3nc2-1
- T/C (dose: 2.0 mg/kg/injection, schedule: Q01DX Z (oral), vehicle: saline): 120 % of control
- T/C (dose: 2.0 mg/kg/injection, schedule: Q07DX Z (ip), vehicle: saline): 124 % of control
- T/C (dose: 2.0 mg/kg/injection, schedule: Q## X Z (ip), vehicle: saline): 98 % of control
- T/C (dose: 2.25 mg/kg/injection, schedule: Q#A X Z (ip), vehicle: saline): 93 % of control
- T/C (dose: 2.5 mg/kg/injection, schedule: Q01DX001 (ip), vehicle: saline): 116 % of control and 202 % of control
- T/C (dose: 3.0 mg/kg/injection, schedule: Q01DX006 (iv), vehicle: saline): 120 % of control
- T/C (dose: 3.0 mg/kg/injection, schedule: Q01DX Z (oral), vehicle: saline): 120 % of control
- T/C (dose: 3.0 mg/kg/injection, schedule: Q03DX Z (ip), vehicle: saline): 155 % of control
- T/C (dose: 3.2 mg/kg/injection, schedule: Q01DX Z (ip), vehicle: saline): 121 % of control
- T/C (dose: 4.0 mg/kg/injection, schedule: Q01DX001 (ip), vehicle: saline): 105 % of control
- T/C (dose: 4.0 mg/kg/injection, schedule: Q01DX010 (iv), vehicle: saline): 108 % of control
- T/C (dose: 4.0 mg/kg/injection, schedule: Q01DX Z (ip), vehicle: saline): 97 % of control
- T/C (dose: 4.0 mg/kg/injection, schedule: Q01DX Z (oral), vehicle: saline): 118 % of control and 119 % of control
- T/C (dose: 4.5 mg/kg/injection, schedule: Q01DX006 (iv), vehicle: saline): 122 % of control
- T/C (dose: 4.5 mg/kg/injection, schedule: Q01DX Z (im), vehicle: saline): 117 % of control
- T/C (dose: 4.5 mg/kg/injection, schedule: Q01DX Z (sc), vehicle: saline): 175 % of control
- T/C (dose: 4.8 mg/kg/injection, schedule: Q01DX Z (ip), vehicle: saline): 95 % of control
- T/C (dose: 5.0 mg/kg/injection, schedule: Q04DX003 (ip), vehicle: Klucel (hydroxypropylcellulose) (HPC)): 96 % of control
- T/C (dose: 6.0 mg/kg/injection, schedule: Q03DX Z (ip), vehicle: saline): 152 % of control
- T/C (dose: 6.5 mg/kg/injection, schedule: Q01DX006 (iv), vehicle: saline): 170 % of control
- T/C (dose: 6.5 mg/kg/injection, schedule: Q01DX Z (sc), vehicle: saline): 157 % of control
- T/C (dose: 8.0 mg/kg/injection, schedule: Q01DX001 (ip), vehicle: saline): 109 % of control
- T/C (dose: 8.6 mg/kg/injection, schedule: Q03DX Z (ip), vehicle: saline): 194 % of control
- T/C (dose: 9.5 mg/kg/injection, schedule: Q01DX006 (iv), vehicle: saline): 157 % of control
- T/C (dose: 10.0 mg/kg/injection, schedule: Q04DX003 (ip), vehicle: Klucel (hydroxypropylcellulose) (HPC)): 110 % of control
- T/C (dose: 13.0 mg/kg/injection, schedule: Q03DX Z (ip), vehicle: saline): 124 % of control
- T/C (dose: 16.0 mg/kg/injection, schedule: Q07DX Z (ip), vehicle: saline): 158 % of control and 213 % of control
- T/C (dose: 19.0 mg/kg/injection, schedule: Q03DX Z (ip), vehicle: saline): 93 % of control
- T/C (dose: 20.0 mg/kg/injection, schedule: Q04DX003 (ip), vehicle: Klucel (hydroxypropylcellulose) (HPC)): 117 % of control
- T/C (dose: 24.0 mg/kg/injection, schedule: Q01DX001 (ip), vehicle: saline): 111 % of control
- T/C (dose: 24.0 mg/kg/injection, schedule: Q07DX Z (ip), vehicle: saline): 158 % of control
- T/C (dose: 35.0 mg/kg/injection, schedule: Q01DX001 (ip), vehicle: saline): 122 % of control
- T/C (dose: 50.0 mg/kg/injection, schedule: Q07DX Z (ip), vehicle: saline): 100 % of control
- T/C (dose: 125.0 micrograms/kg/injection, schedule: Q01DX001 (ip), vehicle: saline): 103 % of control
- T/C (dose: 125.0 micrograms/kg/injection, schedule: Q01DX Z (ip), vehicle: saline): 107 % of control
- T/C (dose: 156.0 micrograms/kg/injection, schedule: Q01DX001 (ip), vehicle: saline): 107 % of control
- T/C (dose: 187.0 micrograms/kg/injection, schedule: Q01DX001 (ip), vehicle: saline): 103 % of control
- T/C (dose: 250.0 micrograms/kg/injection, schedule: Q01DX Z (ip), vehicle: saline): 101 % of control
- T/C (dose: 281.0 micrograms/kg/injection, schedule: Q01DX001 (ip), vehicle: saline): 105 % of control
- T/C (dose: 310.0 micrograms/kg/injection, schedule: Q01DX001 (ip), vehicle: saline): 101 % of control
- T/C (dose: 421.0 micrograms/kg/injection, schedule: Q01DX001 (ip), vehicle: saline): 116 % of control
- T/C (dose: 500.0 micrograms/kg/injection, schedule: Q01DX Z (ip), vehicle: saline): 107 % of control
- T/C (dose: 620.0 micrograms/kg/injection, schedule: Q01DX001 (ip), vehicle: saline): 107 % of control
- T/C (dose: 1250.0 micrograms/kg/injection, schedule: Q01DX001 (ip), vehicle: saline): 110 % of control
- T/C (dose: 2000.0 micrograms/kg/injection, schedule: Q01DX Z (ip), vehicle: saline): 222 % of control
- T/C (dose: 4000.0 micrograms/kg/injection, schedule: Q01DX Z (ip), vehicle: saline): 205 % of control
